{
  "source": "patent US20120288885A1",
  "about": "“METHOD AND KIT FOR MEASURING ENZYMATIC ACTIVITIES OF VARIOUS CYTOCHROME P450 MOLECULE SPECIES COMPREHENSIVELY AND WITH HIGH EFFICIENCY” (NATIONAL INSTITUTE OF ADVANCED INDUSTRIAL SCIENCE AND …, priority 2009, published 2012)",
  "key": {"human CYP1A1 [1]": {"target": "T1, human CYP1A1 (Homo sapiens, UniProt P04798)", "T1 construct": "made in house; host or cells: E. coli DH5alpha, membrane fraction", "T1 sequence (P04798 1-512)": "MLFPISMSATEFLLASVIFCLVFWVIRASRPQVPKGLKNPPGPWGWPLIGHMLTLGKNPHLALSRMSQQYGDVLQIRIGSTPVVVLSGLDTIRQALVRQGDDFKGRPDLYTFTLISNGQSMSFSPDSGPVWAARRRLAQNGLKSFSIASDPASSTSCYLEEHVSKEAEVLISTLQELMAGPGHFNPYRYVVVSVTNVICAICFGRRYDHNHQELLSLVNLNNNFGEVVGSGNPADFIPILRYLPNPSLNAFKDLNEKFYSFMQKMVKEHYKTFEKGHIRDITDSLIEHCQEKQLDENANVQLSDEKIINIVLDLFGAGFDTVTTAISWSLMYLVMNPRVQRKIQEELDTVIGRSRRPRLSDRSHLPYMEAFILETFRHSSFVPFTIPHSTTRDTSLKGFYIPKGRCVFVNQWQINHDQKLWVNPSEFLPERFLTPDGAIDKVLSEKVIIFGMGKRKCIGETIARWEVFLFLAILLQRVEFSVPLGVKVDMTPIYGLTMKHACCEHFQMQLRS", "assay": "Substrate metabolic activity on immobilized P450/oxygen sensor vertically integrated chip (fluorescence response of oxygen sensor)", "assay_type": "in vitro ADME", "conditions": "0.5 mM chlortoluron", "experimental": "A ruthenium complex (Ru(dpp)3Cl2) doped sol solution was prepared as described in Anal. Chem. 75 (2003) 2407-2413 with small modifications as follows. TEOS (0.29 mL) was mixed with 0.612 mL of octyl-triEOS, 0.625 mL of ethanol, and 0.2 mL of 0.1 M HCl by stirring for 1 hour at room temperature. Then, 1.725 mL of ethanol was added to the solution to dilute the sol in order to improve the quality of the oxygen sensing film to be ultimately formed. The solution was further stirred for 1 hour. To prepare an Ru(dpp)3Cl2 doped sol, 100 μL of 2 mM Ru(dpp)3Cl2 in ethanol was mixed with 300 μL of the above-mentioned sol solution. This solution was capped and stirred for 30 min, and 10 μL thereof was pipetted into each well of the microplate. The microplate was stored in the dark at room temperature for gelling and aging for 6 days. In order to increase the hydrophilicity of the surface of the oxygen sensor to improve the attachment with hydrogel, the surface of the microarrays was modified with poly (vinyl acetate) (PVAC).\nAgarose was dissolved in deionized water to form a 1.3% (w/w) solution at 60° C. This solution was cooled to about 38° C. […] The microarrays were kept in a refrigerator at 4° C. until use.\nTEOS sol was prepared by mixing 0.5 mL of TEOS, 0.25 mL of deionized water, and 12.5 μL of 0.1 M HCl and stirring for 3 hours to form a homogeneous sol. The sol was diluted four times with deionized water. […]\nIn order to measure the substrate metabolic activities using an immobilized P450/oxygen sensor vertically integrated chip (i.e., a chip comprising an immobilized P450 and an oxygen sensor vertically integrated therein), a study was conducted using immobilized human CYP1A1 as the P450 and chlortoluron (a herbicide) as a substrate. […] After the addition of the substrate solution into the microarrays, the microplate was quickly placed onto the platform of a microplate reader for the fluorescence measurement. Fluorescence intensity was recorded every 5 min for 3 hours."}, "CYP3A5": {"target": "T2, CYP3A5 (Homo sapiens, UniProt P20815)", "T2 construct": "made in house; host or cells: E. coli membrane fraction (inferred from the pCW negative control and the general expression paragraph)", "T2 sequence (P20815 whole entry)": "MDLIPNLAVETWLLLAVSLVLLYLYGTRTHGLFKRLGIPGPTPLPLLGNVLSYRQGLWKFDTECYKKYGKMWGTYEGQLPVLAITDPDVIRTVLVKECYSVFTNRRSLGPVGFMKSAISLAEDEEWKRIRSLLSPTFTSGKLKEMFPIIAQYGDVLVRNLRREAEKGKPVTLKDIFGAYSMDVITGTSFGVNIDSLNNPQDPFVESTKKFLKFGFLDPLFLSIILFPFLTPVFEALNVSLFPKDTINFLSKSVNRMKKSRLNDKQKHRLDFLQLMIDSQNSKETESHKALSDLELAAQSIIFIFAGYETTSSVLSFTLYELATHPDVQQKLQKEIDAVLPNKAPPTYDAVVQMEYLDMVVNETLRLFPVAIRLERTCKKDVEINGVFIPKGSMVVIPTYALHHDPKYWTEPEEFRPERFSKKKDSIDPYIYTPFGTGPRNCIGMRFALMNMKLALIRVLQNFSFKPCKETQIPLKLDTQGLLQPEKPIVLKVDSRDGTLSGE", "assay_type": "in vitro ADME", "experimental": "Using a 96-well microplate, the activity of various human P450 molecular species in oxygen sensor/immobilized P450 toward capsaicin was evaluated. The response to a solution with a substrate was compared to the response to a solution without a substrate and the activity of each molecular species was standardized. CYP2C9, CYP1A2, CYP2D6, CYP3A4, CYP2B6, CYP2C19(1A,1B), CYP2E1, CYP1A1, CYP2C8, CYP2W1, CYP4X1, CYP17A1, CYP27A1, CYP51A1, CYP2A6, CYP2A13, CYP1B1, CYP2C18, CYP2J2, CYP3A5, CYP2R1 and CYP2B6 were used as the P450. Furthermore, a membrane fraction (pCW) derived from E. coli was used as a negative control without human P450. […] The longitudinal axis of FIG. 11 indicates the value obtained by dividing the value of the response with a substrate by the value of the response without a substrate (background oxygen consumption) and standardizing the obtained value. As is clear from the figure, various molecular species show activity toward each compound. […] This also indicates the possibility that activities of human P450 toward pharmaceutical compounds and like compounds can be detected in a parallel manner."}, "human CYP1A1 [2]": {"target": "T1, human CYP1A1", "assay": "Competitive assay between fluorogenic substrate (7-ER) and non-fluorogenic substrate using caged-G6P", "assay_type": "biochemical", "conditions": "benzopyrene 0.1 and 1 μM; 7-ER 0.1 to 1.5 μM", "experimental": "A competitive assay between a fluorogenic substrate (7-ER) and a non-fluorogenic substrate (benzopyrene) was conducted using caged-G6P. An aqueous solution obtained by mixing the following components was used as the reaction liquid: 50 μL of 1 M potassium phosphate buffer solution, 30 μL of 5 mM caged-G6P, 2.89 μL of 69.3 U/mL glucose-6-phosphate […], 15 μL of 100 mM magnesium chloride, 1 μL of 5 mM NADP aqueous solution, 10.25 μL of P450 membrane fractions (human CYP1A1), 5 μL of 0.1 M dithiothreitol, and 379.61 μL of ultrapure water. The 7-ER concentration was varied from 0.1 μM to 1.5 μM. The benzopyrene concentrations were 0.1 μM and 1 μM. After UV light irradiation, incubation was performed for 30 minutes to carry out the P450 enzymatic reaction. Thereafter, 25 μL of 30% trichloroacetic acid was added thereto to terminate the enzymatic reaction. By adding 500 μL of chloroform to the reaction liquid and stirring the mixture for 1 minute, the […] (7HR) generated by the reaction was extracted in chloroform. […] After centrifuging for 1 minute, the […] was transferred to a cuvette, and the fluorescence spectra thereof were measured under the following conditions. Excitation wavelength: 366 nm, fluorescence wavelength: 380 to 600 nm. The maximum fluorescence was used to quantify the 7HR. […]"}},
  "data": [
    {"smiles": "Cc1ccc(NC(=O)N(C)C)cc1Cl", "note": "[chlortoluron]", "values": [
      {"measurement": "change in fluorescence intensity of the oxygen sensing layer (oxygen consumption due to metabolic reaction)", "setting": "human CYP1A1 [1]; P450 encapsulated in Ludox silica gel", "result": "only a limited increase"},
      {"measurement": "change in fluorescence intensity of the oxygen sensing layer (oxygen consumption due to metabolic reaction)", "setting": "human CYP1A1 [1]; P450 encapsulated in TEOS silica gel", "result": "no significant fluorescence increase"},
      {"measurement": "change in fluorescence intensity of the oxygen sensing layer (oxygen consumption due to metabolic reaction)", "setting": "human CYP1A1 [1]; P450 encapsulated in agarose gel, versus NADPH solution without substrate", "result": "significantly increased"}
    ]},
    {"smiles": "COc1cc(CNC(=O)CCCC/C=C/C(C)C)ccc1O", "note": "[capsaicin]", "values": [
      {"measurement": "oxygen sensor response normalized by the response toward a solution without a substrate (peak height, FIG. 11)", "setting": "CYP3A5", "result": "particularly high"}
    ]},
    {"smiles": "c1ccc2c(c1)c1cccc3ccc4cccc2c4c31", "note": "[benzopyrene]", "values": [
      {"measurement": "mode of inhibition of 7-ER metabolism (effect on initial reaction velocity)", "setting": "human CYP1A1 [2]", "result": "noncompetitive inhibitor"}
    ]}
  ]
}
